Drawing on BindingDB's records for doi:10.1021/jm00017a003 (Sterling Winthrop Pharmaecuticals Research Division, 1995), this text covers IC50 for 22 molecules.

As usually defined, the pIC50 is the IC50 on a negative log10 scale, so that one unit is a factor of ten. A higher pIC50 goes with a low IC50.

pIC50: −log10 of the molar value.

The nature of the assay: The compound was tested for inhibition of HIV-1 replication in SW480 cells using HIV tat assay.

`C[C@]12CCC3C(CC[C@@]45O[C@@H]4C(=O)C(S(C)(=O)=O)C[C@]35C)C1CC[C@@H]2O` (some centres not stated) had a negative logarithm of the IC50 (pIC50) of 5.08.
The same measure for `C[C@@]12CCCC[C@]13O[C@@H]3C(=O)C(C#N)C2` (some centres not stated): 4.47; for `CC(=O)O[C@H]1CC[C@H]2[C@@H]3CC[C@@]4(O)[C@@H](Cl)C(=O)C(C(N)=O)C[C@]4(C)[C@H]3CC[C@]12C` (some centres not stated): 5.08; for `COc1ccc(NC(=O)C2CC(C)(C)C3OC3C2=O)cc1` (configuration not stated): 4.67.
To `COC(=O)C1C[C@]2(C)[C@H]3CC[C@]4(C)[C@@H](OC(C)=O)CC[C@H]4[C@@H]3CC[C@]23O[C@@H]3C1=O` (some centres not stated) belongs 5.57; to `C[C@@]12CCCC[C@@]1(O)[C@@H](Cl)C(=O)C(C(=O)Nc1ccccc1)C2` (some centres not stated), 5.15.
To `C[C@]12CC[C@H]3[C@@H](CC[C@@]45O[C@@H]4C(=O)C(S(=O)(=O)c4ccccc4)C[C@]35C)[C@@H]1CC[C@@H]2O` (some centres not stated) belongs 4.99.
`COC(=O)C1C[C@]2(C)[C@H]3CC[C@]4(C)[C@@H](O)CC[C@H]4[C@@H]3CC[C@]23O[C@@H]3C1=O` (some centres not stated) gave a pIC50 of 5.44.
`C[C@@]12CCCC[C@@]1(O)[C@@H](Cl)C(=O)C(C(N)=O)C2` (some centres not stated): the negative logarithm of the IC50 (pIC50) was 4.78.
The same measure for `CC1(C)CC(C(=O)Nc2c(Cl)cccc2Cl)C(=O)C2OC21` (configuration not stated): 4.50.
The same measure for `C[C@]12CCCC[C@@]13O[C@H]3C(=O)C(C#N)C2` (some centres not stated): 3.56; for `C[C@]12CC[C@H]3[C@@H](CC[C@@]45O[C@@H]4C(=O)C(C(N)=O)C[C@]35C)[C@@H]1CC[C@@H]2O` (some centres not stated): 4.84.
The same measure for `C[C@@]12CCCC[C@]13O[C@@H]3C(=O)C(C(=O)Nc1ccccc1)C2` (some centres not stated): 5.55; for `CC(=O)O[C@H]1CC[C@H]2[C@@H]3CC[C@@]45O[C@@H]4C(=O)C(C#N)C[C@]5(C)[C@H]3CC[C@]12C` (some centres not stated): 4.61.
For the molecule `CC(=O)O[C@H]1CC[C@H]2[C@@H]3CC[C@@]45O[C@@H]4C(=O)C(S(C)(=O)=O)C[C@]5(C)[C@H]3CC[C@]12C` (some centres not stated), the pIC50 was 5.59.
For `C[C@]12CCCC[C@]1(O)[C@H](Cl)C(=O)C(C(N)=O)C2` (some centres not stated), the negative logarithm of the IC50 (pIC50) was 4.49.
The same measure for `COc1ccc(NC(=O)C2C[C@]3(C)CCCC[C@@]3(O)[C@@H](Cl)C2=O)cc1` (some centres not stated): 4.47; for `COc1ccc(NC(=O)C2C[C@]3(C)CCCC[C@]34O[C@@H]4C2=O)cc1` (some centres not stated): 4.59.
To `C[C@]12CC[C@H]3[C@@H](CC[C@@]45O[C@@H]4C(=O)CC[C@]35C)[C@@H]1CC[C@@H]2O` belongs 4.81; to `CC(=O)O[C@H]1CC[C@H]2[C@@H]3CC[C@@]45O[C@@H]4C(=O)C(C(N)=O)C[C@]5(C)[C@H]3CC[C@]12C` (some centres not stated), 5.59; to `C[C@@]12CCCC[C@]13O[C@@H]3C(=O)C(C(N)=O)C2` (some centres not stated), 5.00.
To `C[C@]12CCCC[C@@]13O[C@H]3C(=O)C(C(N)=O)C2` (some centres not stated) belongs 4.14.
